# From US10258041B2, “Substituted pyrazolylpyrazole derivative and use of same as herbicide” (KYOYU AGRI CO., LTD., priority 2015, dated 2019)
# Experiments:
# Type in all cases: in vivo
# Echinochloa crus-galli = test: Paddy herbicidal activity test; details: irrigated pot, treated at 3.5 leaf stage of Echinochloa crus-galli, 30 days
# Protocol: (§1) Rice paddy soil was filled into a 1/10000 are pot followed by the addition of suitable amounts of water and chemical fertilizer, kneading, seeding with Echinochloa crus-galli, Monochoria vaginalis and Scirpus juncoides and maintaining in an irrigated state at a water depth of 3 cm. Wettable powders of Target Compound (I) shown in Table 1 prepared in compliance with the preparation examples were diluted with a suitable amount of water, rice plants in the 2.0 leaf stage were transplanted during 3.5 leaf stage of Echinochloa crus-galli, and treated by dropping in chemical in the prescribed amount per 10 are using a pipette. After treating for 30 days in a glass greenhouse at an average atmospheric temperature of […], the herbicidal efficacy thereof was investigated. Evaluation of herbicidal efficacy was carried out by comparing growth inhibition rate (%) with an untreated group, while evaluation of chemical damage was carried out by comparing growth inhibition rate (%) with the state of a complete eradication group, and were evaluated at 11 levels indicated below. • 0 (exponent): 0% to less than 10% (growth inhibition rate) • 1: 10% to less than 20% • 2: 20% to less than 30% • 3: 30% to less than 40% • 4: 40% to less than 50% • 5: 50% to less than 60% • 6: 60% to less than 70% • 7: 70% to less than 80% • 8: 80% to less than 90% • 9: 90% to less than 100% • 10: 100%
# Monochoria vaginalis = test: Paddy herbicidal activity test; details: irrigated pot, treated at 3.5 leaf stage of Echinochloa crus-galli, 30 days
# Protocol: as §1
# Scirpus juncoides = test: Paddy herbicidal activity test; details: irrigated pot, treated at 3.5 leaf stage of Echinochloa crus-galli, 30 days
# Protocol: as §1
# Oryza sativa = test: Paddy herbicidal activity test, chemical damage to transplanted rice; details: rice transplanted in 2.0 leaf stage, 30 days
# Protocol: as §1
# Amaranthus retroflexus [1] = test: Farming soil treatment test; details: soil surface spray prior to weed growth, 30 days, 30° C.
# Protocol: (§2) Evaluation of herbicidal efficacy was carried out by comparing growth inhibition rate (%) with an untreated group, while evaluation of chemical damage was carried out by comparing growth inhibition rate (%) with the state of a complete eradication group, and were evaluated at 11 levels indicated below. • 0 (exponent): 0% to less than 10% (growth inhibition rate) • 1: 10% to less than 20% • 2: 20% to less than 30% • 3: 30% to less than 40% • 4: 40% to less than 50% • 5: 50% to less than 60% • 6: 60% to less than 70% • 7: 70% to less than 80% • 8: 80% to less than 90% • 9: 90% to less than 100% • 10: 100% Field soil was filled into a 1/6000 are pot followed by seeding with Digitaria ciliaris, Chenopodium album and Amraranthus retroflexus and covering with soil. Wettable powders of compounds of formula (I) shown in Table 1 prepared in compliance with the preparation examples were diluted with water to the prescribed amount of chemical and uniformly sprayed onto each soil surface layer using 100 liters of sprayed water per 10 are prior to weed growth following seeding. After treating for 30 days in a glass greenhouse at an average atmospheric temperature of 30° C., the herbicidal efficacy thereof was investigated. Evaluation of herbicidal efficacy was carried out in the same manner as the above-mentioned Test Example 1,
# Chenopodium album [2] = test: Farming soil treatment test; details: soil surface spray prior to weed growth, 30 days, 30° C.
# Protocol: as §2
# Digitaria ciliaris [3] = test: Farming soil treatment test; details: soil surface spray prior to weed growth, 30 days, 30° C.
# Protocol: as §2
# Amaranthus retroflexus [4] = test: Weed foliar treatment test (Test 3); details: foliar spray at 1.0 to 2.0 leaf stage of Digitaria ciliaris, 3 weeks, 25° C.
# Protocol: (§3) Evaluation of herbicidal efficacy was carried out by comparing growth inhibition rate (%) with an untreated group, while evaluation of chemical damage was carried out by comparing growth inhibition rate (%) with the state of a complete eradication group, and were evaluated at 11 levels indicated below. • 0 (exponent): 0% to less than 10% (growth inhibition rate) • 1: 10% to less than 20% • 2: 20% to less than 30% • 3: 30% to less than 40% • 4: 40% to less than 50% • 5: 50% to less than 60% • 6: 60% to less than 70% • 7: 70% to less than 80% • 8: 80% to less than 90% • 9: 90% to less than 100% • 10: 100% Soil was filled into a 1/6000 are pot followed by seeding with Digitaria ciliaris, Chenopodium album and Amaranthus retroflexus, covering with soil, and cultivating in a glass greenhouse at an average atmospheric temperature of 25° C. Wettable powders of Target Compound (I) shown in Table 1 prepared in compliance with the preparation examples were diluted with water to the prescribed amount of chemical and uniformly sprayed onto the weeds using 150 liters of sprayed water per 10 are when Digitaria ciliaris had grown to the 1.0 to 2.0 leaf stage. After treating for 3 weeks in a glass greenhouse at an average atmospheric temperature of 25° C., the herbicidal efficacy thereof was investigated. Evaluation of herbicidal efficacy was carried out in the same manner as the above-mentioned Test Example 1.
# Chenopodium album [5] = test: Weed foliar treatment test (Test 3); details: foliar spray at 1.0 to 2.0 leaf stage of Digitaria ciliaris, 3 weeks, 25° C.
# Protocol: as §3
# Digitaria ciliaris [6] = test: Weed foliar treatment test (Test 3); details: foliar spray at 1.0 to 2.0 leaf stage of Digitaria ciliaris, 3 weeks, 25° C.
# Protocol: as §3
# Digitaria ciliaris [7] = test: Weed foliar treatment test (Test 4, higher leaf stage); details: 10 g a.i./10a; foliar spray at 4.0 to 5.0 leaf stage of Digitaria ciliaris (plant height 10 cm to 15 cm); 20 days, 25° C.
# Protocol: (§4) Evaluation of herbicidal efficacy was carried out by comparing growth inhibition rate (%) with an untreated group, while evaluation of chemical damage was carried out by comparing growth inhibition rate (%) with the state of a complete eradication group, and were evaluated at 11 levels indicated below. • 0 (exponent): 0% to less than 10% (growth inhibition rate) • 1: 10% to less than 20% • 2: 20% to less than 30% • 3: 30% to less than 40% • 4: 40% to less than 50% • 5: 50% to less than 60% • 6: 60% to less than 70% • 7: 70% to less than 80% • 8: 80% to less than 90% • 9: 90% to less than 100% • 10: 100% Field soil was filled into a 1/4500 are pot followed by seeding with Digitaria ciliaris and Galinsoga parviflora, covering with soil and cultivating in a glass greenhouse at an average atmospheric temperature of 25° C. Wettable powders of Target Compound (I) shown, in Table 1 prepared in compliance with the preparation examples were diluted with water to the prescribed amount of chemical and uniformly sprayed onto the weeds using 100 liters of sprayed water per 10 are when Digitaria ciliaris had grown to the 4.0 to 5.0 leaf stage (plant height: 10 cm to 15 cm). After treating for 20 days in a glass greenhouse at an average atmospheric temperature of 25° C., the herbicidal efficacy thereof was investigated. Evaluation of herbicidal efficacy was carried out in the same manner as the above-mentioned Test Example 1.
# Galinsoga parviflora = test: as above; details: 10 g a.i./10a; foliar spray at 4.0 to 5.0 leaf stage of Digitaria ciliaris; 20 days, 25° C.
# Protocol: as §4
Compound,"herbicidal efficacy (growth inhibition rate level), Echinochloa crus-galli (Echinochloa crus-galli; 1 g a.i./10a)","herbicidal efficacy (growth inhibition rate level), Echinochloa crus-galli (Echinochloa crus-galli; 5 g a.i./10a)","herbicidal efficacy (growth inhibition rate level), Monochoria vaginalis (Monochoria vaginalis; 1 g a.i./10a)","herbicidal efficacy (growth inhibition rate level), Monochoria vaginalis (Monochoria vaginalis; 5 g a.i./10a)","herbicidal efficacy (growth inhibition rate level), Scirpus juncoides (Scirpus juncoides; 1 g a.i./10a)","herbicidal efficacy (growth inhibition rate level), Scirpus juncoides (Scirpus juncoides; 5 g a.i./10a)","chemical damage (growth inhibition rate level), Oryza sativa (Oryza sativa; 1 g a.i./10a)","chemical damage (growth inhibition rate level), Oryza sativa (Oryza sativa; 5 g a.i./10a)","herbicidal efficacy (growth inhibition rate level), Amaranthus retroflexus (Amaranthus retroflexus [1]; 5 g a.i./10a)","herbicidal efficacy (growth inhibition rate level), Amaranthus retroflexus (Amaranthus retroflexus [1]; 10 g a.i./10a)","herbicidal efficacy (growth inhibition rate level), Chenopodium album (Chenopodium album [2]; 5 g a.i./10a)","herbicidal efficacy (growth inhibition rate level), Chenopodium album (Chenopodium album [2]; 10 g a.i./10a)","herbicidal efficacy (growth inhibition rate level), Digitaria ciliaris (Digitaria ciliaris [3]; 5 g a.i./10a)","herbicidal efficacy (growth inhibition rate level), Digitaria ciliaris (Digitaria ciliaris [3]; 10 g a.i./10a)","herbicidal efficacy (growth inhibition rate level), Amaranthus retroflexus (Amaranthus retroflexus [4]; 5 g a.i./10a)","herbicidal efficacy (growth inhibition rate level), Amaranthus retroflexus (Amaranthus retroflexus [4]; 10 g a.i./10a)","herbicidal efficacy (growth inhibition rate level), Chenopodium album (Chenopodium album [5]; 5 g a.i./10a)","herbicidal efficacy (growth inhibition rate level), Chenopodium album (Chenopodium album [5]; 10 g a.i./10a)","herbicidal efficacy (growth inhibition rate level), Digitaria ciliaris (Digitaria ciliaris [6]; 5 g a.i./10a)","herbicidal efficacy (growth inhibition rate level), Digitaria ciliaris (Digitaria ciliaris [6]; 10 g a.i./10a)",also measured
CCC(=O)Nc1c(C#N)cnn1-c1nn2c(c1Cl)CCCC2 [Control Agent 4.187],2 (2: 20% to less than 30%),3 (3: 30% to less than 40%),3 (3: 30% to less than 40%),3 (3: 30% to less than 40%),0 (0 (exponent): 0% to less than 10% (growth inhibition rate)),1 (1: 10% to less than 20%),1 (1: 10% to less than 20%),2 (2: 20% to less than 30%),4 (4: 40% to less than 50%),5 (5: 50% to less than 60%),2 (2: 20% to less than 30%),3 (3: 30% to less than 40%),2 (2: 20% to less than 30%),3 (3: 30% to less than 40%),5 (5: 50% to less than 60%),6 (6: 60% to less than 70%),2 (2: 20% to less than 30%),3 (3: 30% to less than 40%),2 (2: 20% to less than 30%),3 (3: 30% to less than 40%),"herbicidal efficacy (growth inhibition rate level), Digitaria ciliaris (Digitaria ciliaris [7]): 2 (2: 20% to less than 30%); herbicidal efficacy (growth inhibition rate level), Galinsoga parviflora (Galinsoga parviflora): 3 (3: 30% to less than 40%)"
N#Cc1cnn(-c2nn3c(c2Cl)CCCC3)c1NC(=O)CCCl [Control Agent 1.36],2 (2: 20% to less than 30%),4 (4: 40% to less than 50%),3 (3: 30% to less than 40%),4 (4: 40% to less than 50%),1 (1: 10% to less than 20%),3 (3: 30% to less than 40%),2 (2: 20% to less than 30%),3 (3: 30% to less than 40%),4 (4: 40% to less than 50%),5 (5: 50% to less than 60%),4 (4: 40% to less than 50%),4 (4: 40% to less than 50%),3 (3: 30% to less than 40%),4 (4: 40% to less than 50%),5 (5: 50% to less than 60%),6 (6: 60% to less than 70%),4 (4: 40% to less than 50%),4 (4: 40% to less than 50%),2 (2: 20% to less than 30%),3 (3: 30% to less than 40%),"herbicidal efficacy (growth inhibition rate level), Digitaria ciliaris (Digitaria ciliaris [7]): 1 (1: 10% to less than 20%); herbicidal efficacy (growth inhibition rate level), Galinsoga parviflora (Galinsoga parviflora): 5 (5: 50% to less than 60%)"
